Results as given in patent US10941136B2, “Quinazoline derivative or its salt and pharmaceutical composition comprising the same” (YUHAN CORPORATION, priority 2016, dated 2021).

What was measured:
Format in all cases: biochemical
PI3Kδ (p110δ/p85α)(h) = target: T1, PI3Kδ (p110δ/p85α)(h) (Homo sapiens, UniProt O00329); assay: PI3K-HTRF in vitro enzyme assay, PI3Kδ; settings: enzyme 0.1 μg/ml
T1 construct: purchased Upstate (Millipore Co, Billerica, Mass., USA) #14˜604

PI3Kα (p110α/p85α)(h) = target: T2, PI3Kα (p110α/p85α)(h) (Homo sapiens, UniProt P42336); assay: PI3K-HTRF in vitro enzyme assay, PI3Kα; settings: enzyme 0.1 μg/ml
T2 construct: purchased Upstate (Millipore Co) #14-602
T2 sequence (P42336 whole entry): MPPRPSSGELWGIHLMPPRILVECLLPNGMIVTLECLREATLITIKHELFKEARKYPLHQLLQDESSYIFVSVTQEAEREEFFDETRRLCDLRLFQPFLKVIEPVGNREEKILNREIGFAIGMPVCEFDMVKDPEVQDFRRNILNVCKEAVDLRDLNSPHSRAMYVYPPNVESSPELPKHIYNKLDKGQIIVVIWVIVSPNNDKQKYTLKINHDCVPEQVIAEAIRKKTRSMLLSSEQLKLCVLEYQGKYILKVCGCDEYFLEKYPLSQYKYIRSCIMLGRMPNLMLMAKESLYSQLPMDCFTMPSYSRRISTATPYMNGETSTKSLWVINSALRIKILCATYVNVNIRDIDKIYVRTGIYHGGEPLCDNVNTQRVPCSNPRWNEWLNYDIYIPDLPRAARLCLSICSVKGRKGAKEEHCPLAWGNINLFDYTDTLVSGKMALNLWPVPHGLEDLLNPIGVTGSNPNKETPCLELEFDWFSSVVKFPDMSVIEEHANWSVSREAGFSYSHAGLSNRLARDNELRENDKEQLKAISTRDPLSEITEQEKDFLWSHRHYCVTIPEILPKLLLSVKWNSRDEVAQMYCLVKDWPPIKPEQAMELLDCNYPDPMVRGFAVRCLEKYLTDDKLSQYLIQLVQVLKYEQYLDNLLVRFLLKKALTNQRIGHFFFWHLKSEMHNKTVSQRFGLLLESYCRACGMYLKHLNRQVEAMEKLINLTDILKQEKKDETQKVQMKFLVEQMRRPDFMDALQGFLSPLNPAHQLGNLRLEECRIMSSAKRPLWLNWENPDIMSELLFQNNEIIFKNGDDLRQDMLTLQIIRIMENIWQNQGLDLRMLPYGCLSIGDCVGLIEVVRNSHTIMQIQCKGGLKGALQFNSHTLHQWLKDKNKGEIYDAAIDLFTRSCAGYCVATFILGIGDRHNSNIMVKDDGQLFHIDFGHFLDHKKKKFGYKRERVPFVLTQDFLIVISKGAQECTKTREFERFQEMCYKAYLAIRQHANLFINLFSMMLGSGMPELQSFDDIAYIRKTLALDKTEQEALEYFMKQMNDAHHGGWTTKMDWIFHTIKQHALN
T2 sequence (P27986 whole entry partner): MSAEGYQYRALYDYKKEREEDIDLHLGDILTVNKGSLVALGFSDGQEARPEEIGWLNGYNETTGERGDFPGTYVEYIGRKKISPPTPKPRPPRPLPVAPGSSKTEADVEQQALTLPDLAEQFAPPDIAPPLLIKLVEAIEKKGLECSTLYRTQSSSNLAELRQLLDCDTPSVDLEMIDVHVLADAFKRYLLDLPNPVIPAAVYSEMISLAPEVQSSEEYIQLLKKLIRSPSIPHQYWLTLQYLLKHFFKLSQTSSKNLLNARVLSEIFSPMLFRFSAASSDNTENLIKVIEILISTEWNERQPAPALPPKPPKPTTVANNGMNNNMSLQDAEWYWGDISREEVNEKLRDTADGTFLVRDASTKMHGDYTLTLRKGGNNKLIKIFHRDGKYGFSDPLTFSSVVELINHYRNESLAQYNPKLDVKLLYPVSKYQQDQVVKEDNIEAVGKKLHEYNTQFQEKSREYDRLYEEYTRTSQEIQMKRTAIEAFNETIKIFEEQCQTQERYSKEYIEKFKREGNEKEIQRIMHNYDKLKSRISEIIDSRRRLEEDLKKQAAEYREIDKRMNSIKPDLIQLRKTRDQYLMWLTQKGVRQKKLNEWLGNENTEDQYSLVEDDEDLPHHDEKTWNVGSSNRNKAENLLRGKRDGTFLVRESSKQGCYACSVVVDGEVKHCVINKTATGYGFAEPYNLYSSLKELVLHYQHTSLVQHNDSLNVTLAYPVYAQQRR

PI3Kβ (p110β/p85α)(h) = target: T3, PI3Kβ (p110β/p85α)(h) (Homo sapiens, UniProt P42338); assay: PI3K-HTRF in vitro enzyme assay, PI3Kβ; settings: enzyme 0.4 μg/ml
T3 construct: purchased Upstate (Millipore Co) #14-603
T3 sequence (P42338 whole entry): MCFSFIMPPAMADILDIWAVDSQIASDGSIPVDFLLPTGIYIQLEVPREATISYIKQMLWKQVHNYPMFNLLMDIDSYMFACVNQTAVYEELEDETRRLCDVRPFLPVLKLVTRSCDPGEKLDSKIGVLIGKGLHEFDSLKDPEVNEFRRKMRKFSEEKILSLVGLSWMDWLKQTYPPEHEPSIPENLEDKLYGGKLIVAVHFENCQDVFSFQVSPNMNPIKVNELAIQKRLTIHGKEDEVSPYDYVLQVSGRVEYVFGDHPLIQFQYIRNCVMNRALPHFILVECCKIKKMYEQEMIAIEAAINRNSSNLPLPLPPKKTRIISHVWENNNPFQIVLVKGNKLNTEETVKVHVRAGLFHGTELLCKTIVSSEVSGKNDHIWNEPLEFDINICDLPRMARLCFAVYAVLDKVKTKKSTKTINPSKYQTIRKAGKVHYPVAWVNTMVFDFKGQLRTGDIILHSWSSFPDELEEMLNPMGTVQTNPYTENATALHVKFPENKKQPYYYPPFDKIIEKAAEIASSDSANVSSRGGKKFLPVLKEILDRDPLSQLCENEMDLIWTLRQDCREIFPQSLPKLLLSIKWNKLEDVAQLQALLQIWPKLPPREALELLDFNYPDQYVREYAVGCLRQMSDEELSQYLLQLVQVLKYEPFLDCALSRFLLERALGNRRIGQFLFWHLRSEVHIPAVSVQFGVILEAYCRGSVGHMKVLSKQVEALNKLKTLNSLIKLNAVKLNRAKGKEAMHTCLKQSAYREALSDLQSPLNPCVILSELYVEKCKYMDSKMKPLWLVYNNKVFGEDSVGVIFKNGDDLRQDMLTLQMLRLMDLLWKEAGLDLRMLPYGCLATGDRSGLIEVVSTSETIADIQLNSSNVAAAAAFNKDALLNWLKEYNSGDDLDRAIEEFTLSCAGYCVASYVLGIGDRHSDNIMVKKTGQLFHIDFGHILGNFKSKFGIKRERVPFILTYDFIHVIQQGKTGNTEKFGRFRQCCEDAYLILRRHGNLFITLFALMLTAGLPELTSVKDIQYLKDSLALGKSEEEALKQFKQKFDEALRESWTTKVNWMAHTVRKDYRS
T3 sequence (P27986 whole entry partner): as the sequence (P27986 whole entry partner) above
Description: The compounds of the present invention were tested for the activity of phosphatidylinositol 3-kinase delta (PI3K) by using a PI3K enzyme-homogeneous time resolved fluorescence (PI3K-HTRF) kit, which is available under Upstate™ kit (Millipore Co, Billerica, Mass., USA). This kit system measures indirectly the amount of PIP3 produced via PI3K by detecting competitive inhibition of fluorescence complex formation.
There were used three kinds of buffer solutions, i.e., reaction buffer, stop solution, and detection solution. The reaction buffer was prepared by diluting Reaction Buffer (provided in Update™ kit) with distilled water 4 times and adding DTT to a concentration of 5 mM. The stop solution was prepared by combining STOP A and B Solutions (provided in Update™ kit) in a ratio of 3:1. The detection solution was prepared by combining Detection Solution A, B and C (provided in Update™ kit) in a ratio of 1:1:18. A substrate solution and an ATP solution were prepared by diluting the 1 mM PIP2 (phosphatidyl inositol 4,5 bi-phosphate) stock solution (provided in Update™ kit) and 10 mM ATP (Sigma-aldrich Co., St. Louis, Mo., USA) stock solution with the reaction buffer to concentrations of 20 μM and 40 μM, respectively. An enzyme solution was prepared by diluting PI3Kδ (#14˜604; Upstate™ kit) with the substrate solution to the concentration of 0.2 μg/ml (final reaction concentration: 0.1 μg/ml).
The test groups were prepared by dissolving each compound in 100% DMSO at 40× the final concentration and then diluting 10-fold with the reaction buffer. 5 μl of each diluted test group solution was transferred to a 384 well low flange white flat bottom microplate (#3572, Corning Life Sciences, Lowell, Mass., USA). We performed centrifuge (1 minute, 1000 rpm) and shaking for 2 minutes after every solution-adding step in this experiment. Next, 10 μl of the enzyme solution was added to each well. A mixed solution of the substrate solution (10 μl) plus 5 μl of the 100% DMSO diluted solution without test compound (i.e., 10% DMSO solution) was used as a negative control. And also, a mixed solution of enzyme solution (10 μl) plus 5 μl of the 100% DMSO diluted solution without test compound (i.e., 10% DMSO solution) was used as a positive control. This plate was pre-incubated for 10 minutes in a 25° C. incubator. After the pre-incubation, the phosphorylation reaction was induced by adding 5 μl of the ATP solution and the plate was incubated for 30 minutes in a 25° C. incubator. This enzyme reaction was stopped by 5 μl of the stop solution and then 5 μl of the detection solution was added thereto. To obtain enough fluorescence responses, the plate was incubated for 2 hours in a 25° C. incubator protected from light.
The time-resolved fluorescence resonance energy transfer (TR-FRET) rate was measured (emission wavelength: 665 nm, 620 nm, excitation wavelength: 313 nm) by using a Flexstation3 Micro plate reader (Molecular Devices, USA). TR-FRET Rate was calculated based on the Equation 1 and using these TR-FRET Rates, % inhibition rate of each compound was calculated based on the Equation 2. The IC50 values, i.e., the concentration of a test compound that inhibits 50% of PI3Kδ activity in vitro, are generated by Softmax program (Molecular Devices, USA). TR-FRET Rate=(Signal at 665 nm emission wavelength/Signal at 620 nm emission wavelength)×10000 <Equation 1> % Inhibition Rate=[(TR-FRET Rate of the test group−TR-FRET Rate of the positive control group)/(TR-FRET Rate of the negative control group−TR-FRET Rate of the positive control group)]×100 <Equation 2>
The compounds of the present invention were assayed for the activities of PI3K subtypes, i.e., PI3Kα, PI3Kβ and PI3Kγ, using the same procedures as in Experimental Example 1. […]

PI3Kγ (p120γ)(h) = target: T4, PI3Kγ (p120γ)(h) (Homo sapiens, UniProt P48736); assay: PI3K-HTRF in vitro enzyme assay, PI3Kγ; settings: enzyme 0.4 μg/ml
T4 construct: purchased Upstate (Millipore Co) #14-558
T4 sequence (P48736 whole entry): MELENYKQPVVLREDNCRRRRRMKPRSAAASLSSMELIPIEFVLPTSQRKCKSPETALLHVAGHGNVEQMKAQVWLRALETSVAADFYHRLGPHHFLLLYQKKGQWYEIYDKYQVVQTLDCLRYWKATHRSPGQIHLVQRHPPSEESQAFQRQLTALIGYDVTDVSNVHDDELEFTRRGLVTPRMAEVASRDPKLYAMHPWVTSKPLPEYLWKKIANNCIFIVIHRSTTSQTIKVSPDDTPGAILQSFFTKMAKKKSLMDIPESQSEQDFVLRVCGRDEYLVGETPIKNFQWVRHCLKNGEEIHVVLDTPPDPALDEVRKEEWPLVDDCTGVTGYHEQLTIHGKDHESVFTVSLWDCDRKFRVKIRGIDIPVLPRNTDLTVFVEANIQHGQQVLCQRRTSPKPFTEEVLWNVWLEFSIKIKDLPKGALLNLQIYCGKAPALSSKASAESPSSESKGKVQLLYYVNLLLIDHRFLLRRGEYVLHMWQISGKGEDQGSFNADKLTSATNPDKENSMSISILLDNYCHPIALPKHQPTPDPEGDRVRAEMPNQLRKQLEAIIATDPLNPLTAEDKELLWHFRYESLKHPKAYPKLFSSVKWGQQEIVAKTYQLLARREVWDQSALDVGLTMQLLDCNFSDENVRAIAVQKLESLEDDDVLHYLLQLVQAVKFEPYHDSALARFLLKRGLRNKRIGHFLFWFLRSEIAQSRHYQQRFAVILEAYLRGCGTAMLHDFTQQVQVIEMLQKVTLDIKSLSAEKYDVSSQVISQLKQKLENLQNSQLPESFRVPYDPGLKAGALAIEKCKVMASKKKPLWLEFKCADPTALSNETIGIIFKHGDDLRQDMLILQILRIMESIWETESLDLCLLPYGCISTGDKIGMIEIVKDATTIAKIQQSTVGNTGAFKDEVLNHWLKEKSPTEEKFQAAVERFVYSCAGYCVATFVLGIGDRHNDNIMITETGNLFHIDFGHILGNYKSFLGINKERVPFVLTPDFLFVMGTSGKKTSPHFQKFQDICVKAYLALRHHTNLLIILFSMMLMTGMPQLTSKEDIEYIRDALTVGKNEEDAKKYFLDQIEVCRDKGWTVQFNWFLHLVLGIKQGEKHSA

T1 sequence (O00329 whole entry): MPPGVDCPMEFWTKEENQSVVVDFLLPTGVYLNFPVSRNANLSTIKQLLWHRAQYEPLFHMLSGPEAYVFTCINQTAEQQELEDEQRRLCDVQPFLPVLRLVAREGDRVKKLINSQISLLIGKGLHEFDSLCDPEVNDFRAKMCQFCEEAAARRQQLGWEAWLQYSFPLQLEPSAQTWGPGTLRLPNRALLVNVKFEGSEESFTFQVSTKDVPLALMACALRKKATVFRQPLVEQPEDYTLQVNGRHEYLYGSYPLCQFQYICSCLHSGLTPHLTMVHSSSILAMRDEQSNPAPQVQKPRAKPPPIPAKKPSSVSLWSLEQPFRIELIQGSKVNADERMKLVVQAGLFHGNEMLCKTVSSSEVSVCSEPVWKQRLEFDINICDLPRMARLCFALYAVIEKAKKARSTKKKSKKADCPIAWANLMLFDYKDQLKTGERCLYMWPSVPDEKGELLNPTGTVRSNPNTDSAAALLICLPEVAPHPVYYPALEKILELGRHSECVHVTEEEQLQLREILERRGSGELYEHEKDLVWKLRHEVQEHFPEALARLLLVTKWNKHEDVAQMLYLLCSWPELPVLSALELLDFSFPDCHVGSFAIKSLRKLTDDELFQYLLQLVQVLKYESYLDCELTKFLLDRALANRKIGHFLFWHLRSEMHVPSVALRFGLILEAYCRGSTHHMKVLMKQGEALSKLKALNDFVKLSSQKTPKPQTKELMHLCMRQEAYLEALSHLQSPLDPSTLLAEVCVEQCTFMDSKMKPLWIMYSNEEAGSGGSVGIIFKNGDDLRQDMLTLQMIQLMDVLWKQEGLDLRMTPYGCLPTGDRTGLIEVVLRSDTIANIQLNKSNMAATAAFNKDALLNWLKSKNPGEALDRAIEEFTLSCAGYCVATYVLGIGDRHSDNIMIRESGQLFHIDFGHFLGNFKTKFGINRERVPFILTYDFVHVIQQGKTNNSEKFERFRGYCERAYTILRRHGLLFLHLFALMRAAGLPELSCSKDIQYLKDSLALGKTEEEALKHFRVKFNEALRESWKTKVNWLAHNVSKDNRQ
T1 sequence (P27986 whole entry partner): as the sequence (P27986 whole entry partner) above

SMILES | IC50 (PI3Kδ (p110δ/p85α)(h)) | IC50 (PI3Kα (p110α/p85α)(h)) | IC50 (PI3Kβ (p110β/p85α)(h)) | IC50 (PI3Kγ (p120γ)(h))
CCOc1ncc(-c2cccc3cc([C@H](C)Nc4ncnc5ccc(C#N)cc45)n(-c4ccccc4)c(=O)c23)cn1 [Example 34, (S)-4-((1-(8-(2-ethoxypyrimidin-5-yl)-1-oxo-2-phenyl-1,2-dihydroisoquinolin-3-yl)ethyl)amino)quinazoline-6-carbonitrile] | 17 nM | 1350 nM | 7390 nM | 324 nM
C[C@H](Nc1ncnc2ccc(C#N)cc12)c1cc2cccc(-c3cnc(C4CC4)nc3)c2c(=O)n1-c1ccccc1 [Example 37, (S)-4-((1-(8-(2-cyclopropylpyrimidin-5-yl)-1-oxo-2-phenyl-1,2-dihydroisoquinolin-3-yl)ethyl)amino)quinazoline-6-carbonitrile] | 10 nM | 418 nM | 8760 nM | 67 nM
Cc1ncc(-c2cccc3cc([C@H](C)Nc4ncnc5ccc(C#N)cc45)n(-c4ccc(F)cc4)c(=O)c23)cn1 [Example 38, (S)-4-((1-(2-(4-fluorophenyl)-8-(2-methylpyrimidin-5-yl)-1-oxo-1,2-dihydroisoquinolin-3-yl)ethyl)amino)quinazoline-6-carbonitrile] | 26 nM | 635 nM | 9820 nM | 67 nM
CCOc1ncc(-c2cccc3cc([C@H](CC)Nc4ncnc5ccc(C#N)cc45)n(-c4ccccc4)c(=O)c23)cn1 [Example 41, (S)-4-((1-(8-(2-ethoxypyrimidin-5-yl)-1-oxo-2-phenyl-1,2-dihydroisoquinolin-3-yl)propyl)amino)quinazoline-6-carbonitrile] | 2 nM | 909 nM | 9380 nM | 489 nM

More lines, now with the values ahead:

IC50 (PI3Kδ (p110δ/p85α)(h)) | IC50 (PI3Kα (p110α/p85α)(h)) | IC50 (PI3Kβ (p110β/p85α)(h)) | IC50 (PI3Kγ (p120γ)(h)) | SMILES
25 nM | 673 nM | 5310 nM | 93 nM | C[C@H](Nc1ncnc2ccc(C#N)cc12)c1cc2cccc(-c3cnc(N(C)C)nc3)c2c(=O)n1-c1ccccc1 [Example 35, (S)-4-((1-(8-(2-(dimethylamino)pyrimidin-5-yl)-1-oxo-2-phenyl-1,2-dihydroisoquinolin-3-yl)ethyl)amino)quinazoline-6-carbonitrile]
13 nM | 2670 nM | 8860 nM | 283 nM | C[C@H](Nc1ncnc2cccc(F)c12)c1cc2cccc(-c3cnc(N)nc3)c2c(=O)n1-c1ccccc1 [Example 43, (S)-8-(2-aminopyrimidin-5-yl)-3-(1-((5-fluoroquinazolin-4-yl)amino)ethyl)-2-phenylisoquinolin-1(2H)-one]
12 nM | 2950 nM | 7950 nM | 1580 nM | CC(C)[C@H](Nc1ncnc2cccc(F)c12)c1cc2cccc(-c3cnc(N)nc3)c2c(=O)n1-c1ccccc1 [Example 46, (S)-8-(2-aminopyrimidin-5-yl)-3-(1-((5-fluoroquinazolin-4-yl)amino)-2-methylpropyl)-2-phenylisoquinolin-1(2H)-one]
